Several values for one entry are separate records, joined by “and”; a condition that tells them apart may be missing. Equal values may be shown once. Inconclusive results and toxic doses are left out. Rule as the data show it: active = T/C of 150% or more; inactive = T/C below 125%.
System: L1210 leukemia ip in BDF1 mice, survival T/C
Experiment: NCI In Vivo Anticancer Drug Screen. Data for tumor model L1210 Leukemia (intraperitoneal) in B6D2F1 (BDF1) mice
Conditions: endpoint: mean survival time, higher = longer survival
How it was run: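 Read-out is survival time, reported as the treated-group measurement over the vehicle-control measurement.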

[1] = dose: 100.0 mg/kg/injection, schedule: Q01DX001 (ip), vehicle: carboxymethylcellulose (CMC)
[2] = dose: 200.0 mg/kg/injection, schedule: Q01DX001 (ip), vehicle: carboxymethylcellulose (CMC)
[3] = dose: 400.0 mg/kg/injection, schedule: Q01DX001 (ip), vehicle: carboxymethylcellulose (CMC)
[4] = dose: 100.0 mg/kg/injection, schedule: Q01DX009 (ip), vehicle: saline with Tween-80
[5] = dose: 200.0 mg/kg/injection, schedule: Q01DX009 (ip), vehicle: saline with Tween-80
[6] = dose: 100.0 mg/kg/injection, schedule: Q04DX003 (ip), vehicle: Klucel (hydroxypropylcellulose) (HPC)
[7] = dose: 200.0 mg/kg/injection, schedule: Q04DX003 (ip), vehicle: Klucel (hydroxypropylcellulose) (HPC)
[8] = dose: 400.0 mg/kg/injection, schedule: Q04DX003 (ip), vehicle: Klucel (hydroxypropylcellulose) (HPC)
[9] = dose: 100.0 mg/kg/injection, schedule: Q04DX003 (ip), vehicle: saline with Tween-80
[10] = dose: 200.0 mg/kg/injection, schedule: Q04DX003 (ip), vehicle: saline with Tween-80
[11] = dose: 400.0 mg/kg/injection, schedule: Q01DX009 (ip), vehicle: saline with Tween-80
[12] = dose: 400.0 mg/kg/injection, schedule: Q04DX003 (ip), vehicle: saline with Tween-80
[13] = dose: 100.0 mg/kg/injection, schedule: Q01DX009 (ip), vehicle: Klucel (hydroxypropylcellulose) (HPC)
[14] = dose: 200.0 mg/kg/injection, schedule: Q01DX009 (ip), vehicle: Klucel (hydroxypropylcellulose) (HPC)
[15] = dose: 400.0 mg/kg/injection, schedule: Q01DX009 (ip), vehicle: Klucel (hydroxypropylcellulose) (HPC)
[16] = dose: 100.0 mg/kg/injection, schedule: Q01DX001 (ip), vehicle: saline
[17] = dose: 200.0 mg/kg/injection, schedule: Q01DX001 (ip), vehicle: saline
[18] = dose: 400.0 mg/kg/injection, schedule: Q01DX001 (ip), vehicle: saline

Measured: T/C

CCCCCCCCCCCCCCNC1=C(C)C(=O)C(NCCCCCCCCCCCCCC)=C(C)C1=O
inactive: [1] 98 % of control | [2] 93 % of control | [3] 89 % of control

Cc1ccc2c(C)c(C)c(=O)n(C)c2c1
inactive: dose: 100.0 mg/kg/injection, schedule: Q01DX001 (ip), vehicle: other 104 % of control | dose: 200.0 mg/kg/injection, schedule: Q01DX001 (ip), vehicle: other 98 % of control | dose: 400.0 mg/kg/injection, schedule: Q01DX001 (ip), vehicle: other 95 % of control

CN(c1ccccc1Cl)c1ccccc1Cl
inactive: dose: 64.0 mg/kg/injection, schedule: Q04DX002 (ip), vehicle: saline with Tween-80 104 % of control | dose: 160.0 mg/kg/injection, schedule: Q04DX002 (ip), vehicle: saline with Tween-80 89 % of control | dose: 400.0 mg/kg/injection, schedule: Q04DX002 (ip), vehicle: saline with Tween-80 86 % of control

O=C(Nc1ccccc1C(=O)c1ccccc1)c1ccc(Cl)cc1Cl
inactive: dose: 50.0 mg/kg/injection, schedule: Q01DX009 (ip), vehicle: saline with Tween-80 105 % of control | [4] 94 % of control | [5] 87 % of control

O=C1c2c(Cl)cccc2Cc2cccc(Cl)c21
inactive: dose: 37.5 mg/kg/injection, schedule: Q01DX001 (ip), vehicle: Klucel (hydroxypropylcellulose) (HPC) 107 % of control | dose: 75.0 mg/kg/injection, schedule: Q01DX001 (ip), vehicle: Klucel (hydroxypropylcellulose) (HPC) 102 % of control | dose: 150.0 mg/kg/injection, schedule: Q01DX001 (ip), vehicle: Klucel (hydroxypropylcellulose) (HPC) 100 % of control

CCN(C(=O)Nc1cccc(C(F)(F)F)c1)c1ccccc1C(F)(F)F
inactive: [6] 98 % of control | [7] 91 % of control | [8] 93 % of control

OCC(F)(F)C(F)(F)C(F)(F)CO
inactive: dose: 100.0 mg/kg/injection, schedule: Q01DX009 (ip), vehicle: saline 87 % of control | dose: 200.0 mg/kg/injection, schedule: Q01DX009 (ip), vehicle: saline 90 % of control | dose: 400.0 mg/kg/injection, schedule: Q01DX009 (ip), vehicle: saline 100 % of control

NC(=O)c1cc2ccccc2[n+](Cc2ccc(F)cc2)c1
inactive: dose: 75.0 mg/kg/injection, schedule: Q01DX001 (ip), vehicle: saline 107 % of control

O=C1c2ccccc2C2(Br)C(=O)c3ccccc3C12Br (centres undefined)
inactive: dose: 100.0 mg/kg/injection, schedule: Q04DX002 (ip), vehicle: Klucel (hydroxypropylcellulose) (HPC) 104 % of control | dose: 200.0 mg/kg/injection, schedule: Q04DX002 (ip), vehicle: Klucel (hydroxypropylcellulose) (HPC) 101 % of control | dose: 400.0 mg/kg/injection, schedule: Q04DX002 (ip), vehicle: Klucel (hydroxypropylcellulose) (HPC) 93 % of control

CCN(CC)CCN1C(=O)CN=C(c2ccc[nH]2)c2cc(Cl)ccc21
inactive: [4] 121 % of control | [9] 100 % of control | [5] 106 % of control | [10] 94 % of control | [11] 117 % of control | [12] 96 % of control

C=CCOCC(O)CN(CC)c1ccccc1 (centres undefined)
inactive: dose: 50.0 mg/kg/injection, schedule: Q01DX009 (ip), vehicle: Klucel (hydroxypropylcellulose) (HPC) 95 % of control | [13] 96 % of control | [6] 100 % of control | [14] 94 % of control and 102 % of control | [7] 102 % of control | [15] 90 % of control | [8] 100 % of control

O=[N+]([O-])c1ccc(Oc2ccccc2[N+](=O)[O-])cc1
inactive: dose: 222.0 mg/kg/injection, schedule: Q01DX Z (ip), vehicle: methylcellulose (MC) 95 % of control | dose: 333.0 mg/kg/injection, schedule: Q01DX Z (ip), vehicle: methylcellulose (MC) 95 % of control | dose: 500.0 mg/kg/injection, schedule: Q01DX Z (ip), vehicle: methylcellulose (MC) 86 % of control

COc1c(NC(=O)C(Br)C(Br)C(=O)O)cccc1[N+](=O)[O-] (centres undefined)
inactive: [4] 100 % of control | [5] 95 % of control | [11] 95 % of control

CCOc1c(Cl)c(Cl)c(Cl)c(Cl)c1Cl
inactive: [13] 91 % of control | [14] 97 % of control | [15] 91 % of control

CN(C)c1ccc(/C=N/Nc2nnc(N/N=C/c3ccc(N(C)C)cc3Cl)c3ccccc23)c(Cl)c1
inactive: dose: 50.0 mg/kg/injection, schedule: Q01DX001 (ip), vehicle: saline 102 % of control | [16] 100 % of control | [17] 100 % of control | [18] 92 % of control

CN/N=C/c1[nH]c(=O)[nH]c(=O)c1C
inactive: [16] 93 % of control | [17] 96 % of control | [18] 104 % of control

O=C1CC2=CC3C=CC(N1)C2c1ccccc13 (centres undefined)
inactive: [9] 101 % of control | [10] 93 % of control | [12] 93 % of control

COC(=O)/C(=C\c1ccccc1)CNC(C)(C)C
inactive: [16] 100 % of control | [17] 97 % of control

COc1ccc(C(=O)N/N=C/c2cccc([N+](=O)[O-])c2)cc1
inactive: [1] 98 % of control | dose: 100.0 mg/kg/injection, schedule: Q01DX009 (ip), vehicle: carboxymethylcellulose (CMC) 90 % of control and 92 % of control | dose: 100.0 mg/kg/injection, schedule: Q04DX002 (ip), vehicle: other 98 % of control | dose: 100.0 mg/kg/injection, schedule: Q04DX003 (ip), vehicle: carboxymethylcellulose (CMC) 98 % of control | [2] 97 % of control | dose: 200.0 mg/kg/injection, schedule: Q01DX009 (ip), vehicle: carboxymethylcellulose (CMC) 101 % of control and 90 % of control | dose: 200.0 mg/kg/injection, schedule: Q04DX002 (ip), vehicle: other 95 % of control | dose: 200.0 mg/kg/injection, schedule: Q04DX003 (ip), vehicle: carboxymethylcellulose (CMC) 98 % of control | [3] 93 % of control | dose: 400.0 mg/kg/injection, schedule: Q01DX009 (ip), vehicle: carboxymethylcellulose (CMC) 95 % of control and 96 % of control | dose: 400.0 mg/kg/injection, schedule: Q04DX002 (ip), vehicle: other 95 % of control | dose: 400.0 mg/kg/injection, schedule: Q04DX003 (ip), vehicle: carboxymethylcellulose (CMC) 102 % of control

CC(C)(C)c1ccc(OC(=O)Nc2ccc(Cl)cc2[N+](=O)[O-])c(Br)c1
inactive: [13] 98 % of control | [14] 93 % of control | [15] 98 % of control

CNc1cc(C(=O)O)nc(NC)n1
inactive: dose: 25.0 mg/kg/injection, schedule: Q01DX Z (ip), vehicle: saline 102 % of control | dose: 50.0 mg/kg/injection, schedule: Q01DX Z (ip), vehicle: saline 98 % of control

C=CC1CN2CCC1CC2C(OC(C)=O)c1ccnc2ccc(OC)cc12 (centres undefined)
inactive: dose: 50.0 mg/kg/injection, schedule: Q01DX001 (ip), vehicle: carboxymethylcellulose (CMC) 97 % of control | [1] 101 % of control | [2] 97 % of control | [3] 92 % of control

C[N+](C)(C)CCSc1ccc2c3c(cccc13)C(=O)c1ccccc1-2
inactive: dose: 12.5 mg/kg/injection, schedule: Q04DX002 (ip), vehicle: saline 107 % of control | dose: 25.0 mg/kg/injection, schedule: Q04DX002 (ip), vehicle: saline 104 % of control | dose: 50.0 mg/kg/injection, schedule: Q04DX002 (ip), vehicle: saline 86 % of control

O=[N+]([O-])c1cc(Cl)ccc1S(=O)(=O)CC(Cl)c1ccccc1 (centres undefined)
inactive: dose: 100.0 mg/kg/injection, schedule: Q01DX001 (ip), vehicle: acetone 104 % of control | dose: 100.0 mg/kg/injection, schedule: Q01DX009 (ip), vehicle: acetone 98 % of control | dose: 100.0 mg/kg/injection, schedule: Q04DX003 (ip), vehicle: acetone 108 % of control | dose: 200.0 mg/kg/injection, schedule: Q01DX001 (ip), vehicle: acetone 104 % of control | dose: 200.0 mg/kg/injection, schedule: Q01DX009 (ip), vehicle: acetone 87 % of control and 88 % of control | dose: 200.0 mg/kg/injection, schedule: Q04DX003 (ip), vehicle: acetone 100 % of control | dose: 400.0 mg/kg/injection, schedule: Q01DX001 (ip), vehicle: acetone 101 % of control | dose: 400.0 mg/kg/injection, schedule: Q01DX009 (ip), vehicle: acetone 106 % of control and 92 % of control | dose: 400.0 mg/kg/injection, schedule: Q04DX003 (ip), vehicle: acetone 100 % of control

N#C/C(C(N)=O)=C1\CCCc2sccc21
inactive: [16] 102 % of control | [17] 95 % of control

Source: PubChem BioAssay AID248 (DTP/NCI, 2004)
